“And” between values parts separate entries of the source, which are not always exact repeats. Identical values can stand only once. Non-standard residues stand in square brackets, D forms with d. No end group written: not given here. pG = not defined here
How the values were obtained:
[1] = dynamic light scattering, size and zeta potential of peptide/siRNA complexes; type: physicochemical; conditions: LHRH-DIV3W peptide/siRNA complexes
Experimental: Dynamic Light Scattering and Transmission Electron Microscopy. DIV3 (X)-siNT complexes were prepared at 2 mg/mL in RNase-free water. Hydrodynamic size and surface charge of the peptide/siRNA complexes were determined using a Nano ZS Zetasizer (Malvern Pananalytical, Malvern, UK). All data were recorded using Malvern's Zetasizer software.
To determine nanoparticle size and zeta potential, peptides resuspended in RNase-free water (10 μM) were thawed and kept on ice prior to complexation with 10 μM of siNT in RNase-free water and incubated for 20 minutes at room temperature to form DIV3W-siNT and LHRH-DIV3W-siNT complexes. Peptide complexes were prepared at 2 mg/mL in RNase-free water. Hydrodynamic size and surface charge analysis was conducted using a Malvern Nano ZS Zetasizer (Malvern Panalytical, Malvern, UK). All data was analyzed using Malvern's Zetasizer software.

OVCAR3 cells = experiment: cellular uptake of labeled siRNA by flow cytometry; type: cell-based; design: uptake efficiency higher than DIV3W uptake: concentration or dose not given beside the values; conditions: for uptake efficiency, tandem vs LHRH peptide: FIG. 10E, 4 hr, cell line not stated
Experimental: Cellular Uptake. OVCAR3 and CAOV3 cells were prepared at 50,000 cells per well in a 24-well plate. […] Post-incubation, media was aspirated and cells were washed with 1× PBS. To counterstain the nuclei, SuperSignal NucBlue Hoechst stain (Thermo Fisher, Waltham, MA) was added to the cells for 30 minutes, followed by an additional 1×PBS wash. Subsequent imaging was performed using an EVOS FL Microscope (Thermo Fisher) at 10× magnification. For flow cytometric analysis, cells were detached, resuspended in 1× PBS, and analyzed using an Attune NXT Acoustic flow cytometer (Invitrogen, Carlsbad, CA) with the blue laser line and BL2 (574/26 nm) channel.
Cellular Uptake and Targeting Specificity. Observation of cell uptake was performed by seeding OVCAR3 and CAOV3 cells at a density of 50,000 cells per well in a 24-well plate. LHRH and LHRH-DIV3W peptides were complexed with […] as previously described and delivered to cells at 20:1 to 80:1 N:P ratios. Each cell line was incubated with tandem peptide complexes for both 4- and 24-hour treatment periods. Following incubation, cell media was removed, and cells were washed with 1× PBS prior to the addition of 500 μL of 1×PBS and SuperSignal NucBlue Hoescht 33342 nuclear stain (Thermo Fisher, Waltham, MA). Cellular imaging was completed using an EVOS FL Microscope (Thermo Fisher) at 10×, 20×, and 40× magnification. Flow cytometry was completed after cell imaging and cells were trypsinized, resuspended in 1×PBS, and analyzed with an Attune NXT Acoustic Flow Cytometer (Invitrogen) with the red laser line and RL2 […] channel.

Substance: pGHWSY-(d) LLRPGGGGGWEADIVADIVWDIVADIVAGGG-(d) RRRRRRRRR ([pG]HWSY[dL]LRPGGGGGWEADIVADIVWDIVADIVAGGG[dR][dR][dR][dR][dR][dR][dR][dR][dR]; reading uncertain) [LHRH-DIV3W]
- nanoparticle size (DLS) [1]: 154.2±15.9 nm
- polydispersity index [1]: 0.18
- zeta potential (positive charge) [1]: 33.37±2.00 mV
- uptake efficiency, tandem vs LHRH peptide (OVCAR3 cells; 40:1): 66.81%±4.3%
- uptake efficiency, tandem vs LHRH peptide (OVCAR3 cells; 60:1): 72.59%±6.87%
- uptake efficiency, tandem vs LHRH peptide (OVCAR3 cells; 80:1): 76.26%±14.9%
- uptake efficiency higher than DIV3W uptake (OVCAR3 cells; OVCAR3): 12%
- uptake efficiency (OVCAR3 cells; OVCAR3, siNT-Cy5.5, 4 hours, 80:1): 79.58%+0.61% and 79.58%±1.05%
- uptake efficiency (OVCAR3 cells; OVCAR3, siNT-Cy5.5, 24 hours, 80:1): 76.26%±15.56%

Source: US20250177548A1, “FUSOGENIC PEPTIDE COMPOSITIONS AND METHODS OF CARGO DELIVERY” (CLEMSON UNIVERSITY, priority 2022, published 2025)
